Source: patent publication US8633204B2 (Pfizer Inc., priority 2006, dated 2014)

Tests used:
[1] = tested on: PI3-K in BT20 cells (phosphorylation of AKT at serine 473); test: PI3-Kα Cellular Assay (AKT Ser473 phosphorylation ELISA in BT20 cells); assay type: cell-based, human; conditions: Homo sapiens, BT-20, pAKT Ser473 ELISA, 1 hour incubation
Experimental: Compounds of the present invention were evaluated for potency against PI3-K using a cellular assay as follows.
Healthy growing human breast cancer cells BT20 (PI3K mutated) are used for the assay. BT20 cells are grown in 10% FBS+GLN (1:100)+PS (1:100)+1 mM Sodium Pyruvate+0.1 mM Sodium Bicarbonate+Non-Essential Amino Acids Solution (1:100) MEM medium (MEM+all). […] The cells are re-suspended in 10% FBS MEM all and are centrifuged down at 1400 rpm for 5 minutes. The cells are re-suspended in 0.5% FBS MEM all and are counted on a cell counter. The cells are seeded at 25,000 cells/well in volume of 100 μL/well in 0.5% FBS MEM all in a 96 well flat-bottom plate. The negative control wells receive only 100 μL of 0.5% FBS MEM all medium without cells. The plate is incubated overnight in a cell culture incubator with 5% CO2 at 37° C.
On day 2, testing compounds are prepared in 0.5% FBS MEM all medium and serially diluted at 1:3 for 11 test concentrations. Each concentration of the compounds is tested in duplicate. The compound solutions are added at 25 μL/well to the corresponded wells in cell plate, and 25 μL/well of the vehicle (0.5% DMSO in 0.5% FBS MEM all) is added to the negative control wells (no cells) and the positive control wells (cells without compounds). The plate is incubated for 1 hour in a cell culture incubator with 5% CO2 at 37° C. After 1 hour of incubation, the medium is removed, 100 μL/well of cell lysis buffer is added into the cell plate, and shake for 15 minutes at room temperature. […] After 1 hour, empty the contents of the wells, wash the plate 4 times with the wash buffer, and add 100 μL of TMB substrate solution (catalog #T0440, Sigma) into each well, and incubate with gentle shaking at room temperature for […]. After 15 minutes of color development, add 100 μL of stop solution (1N hydrochloric acid) to each well, and read the plate at 450 nm on ELISA plate reader.

[2] = biological target: PI3-Kα (Mus musculus (Mouse), UniProt P42337); test: PI3-Kα Biochemical Assay (fluorescence polarization kinase assay)
Chain of PI3-Kα (P42337 whole entry, the tested form may be a part): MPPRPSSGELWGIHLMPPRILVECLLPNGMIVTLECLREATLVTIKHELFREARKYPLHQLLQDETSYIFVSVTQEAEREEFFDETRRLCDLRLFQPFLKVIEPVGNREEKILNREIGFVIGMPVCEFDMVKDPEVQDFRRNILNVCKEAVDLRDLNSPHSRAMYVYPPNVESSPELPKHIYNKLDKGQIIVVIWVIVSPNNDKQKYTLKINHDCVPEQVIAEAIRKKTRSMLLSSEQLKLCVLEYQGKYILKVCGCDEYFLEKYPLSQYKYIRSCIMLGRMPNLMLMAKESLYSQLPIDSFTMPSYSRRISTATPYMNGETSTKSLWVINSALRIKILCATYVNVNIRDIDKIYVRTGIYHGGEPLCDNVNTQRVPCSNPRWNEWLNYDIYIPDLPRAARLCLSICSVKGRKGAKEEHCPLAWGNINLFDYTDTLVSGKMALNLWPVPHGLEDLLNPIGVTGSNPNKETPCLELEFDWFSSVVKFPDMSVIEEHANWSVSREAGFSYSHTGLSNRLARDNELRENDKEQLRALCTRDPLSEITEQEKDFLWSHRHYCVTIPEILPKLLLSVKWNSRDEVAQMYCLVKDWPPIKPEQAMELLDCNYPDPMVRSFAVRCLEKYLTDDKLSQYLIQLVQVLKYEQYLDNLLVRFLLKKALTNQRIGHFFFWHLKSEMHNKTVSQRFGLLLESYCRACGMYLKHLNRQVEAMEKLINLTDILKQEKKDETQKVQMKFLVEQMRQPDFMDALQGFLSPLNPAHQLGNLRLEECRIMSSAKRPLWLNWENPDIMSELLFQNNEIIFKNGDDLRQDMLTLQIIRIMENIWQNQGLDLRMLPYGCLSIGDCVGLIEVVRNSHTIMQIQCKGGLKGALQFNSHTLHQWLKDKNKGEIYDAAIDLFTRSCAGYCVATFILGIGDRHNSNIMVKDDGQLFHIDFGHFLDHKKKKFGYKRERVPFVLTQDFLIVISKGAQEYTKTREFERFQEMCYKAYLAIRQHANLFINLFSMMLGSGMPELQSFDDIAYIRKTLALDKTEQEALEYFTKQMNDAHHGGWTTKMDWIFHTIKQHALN
Chain of PI3-Kα (P26450 whole entry partner, the tested form may be a part): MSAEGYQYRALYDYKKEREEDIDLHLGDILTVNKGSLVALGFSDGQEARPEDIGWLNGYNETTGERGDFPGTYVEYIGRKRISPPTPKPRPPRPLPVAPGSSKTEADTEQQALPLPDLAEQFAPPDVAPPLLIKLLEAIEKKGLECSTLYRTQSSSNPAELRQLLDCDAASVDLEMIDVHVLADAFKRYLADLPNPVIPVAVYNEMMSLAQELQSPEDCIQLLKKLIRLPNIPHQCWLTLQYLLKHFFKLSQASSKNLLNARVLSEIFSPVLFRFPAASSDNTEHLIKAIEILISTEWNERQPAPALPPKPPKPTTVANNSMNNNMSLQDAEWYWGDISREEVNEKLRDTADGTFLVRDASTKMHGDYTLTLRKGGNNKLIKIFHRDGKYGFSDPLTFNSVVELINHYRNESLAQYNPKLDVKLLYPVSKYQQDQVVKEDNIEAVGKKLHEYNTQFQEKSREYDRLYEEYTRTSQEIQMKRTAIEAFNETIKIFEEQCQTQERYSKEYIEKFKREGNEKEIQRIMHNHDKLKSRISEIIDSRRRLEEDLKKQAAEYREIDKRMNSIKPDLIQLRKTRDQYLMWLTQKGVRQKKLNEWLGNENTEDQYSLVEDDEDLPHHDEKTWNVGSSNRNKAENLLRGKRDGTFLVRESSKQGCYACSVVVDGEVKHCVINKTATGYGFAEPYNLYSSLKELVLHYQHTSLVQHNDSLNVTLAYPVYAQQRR
Experimental: Compounds of the present invention were evaluated for potency against PI3-Kα using an in vitro kinase assay. PI3-Kα activity is measured in vitro by determining the level of phosphorylation of the substrate PI(4,5)P2. The formation of product PI(3,4,5)P3 is monitored by binding to the Grip1 PH domain in a ligand displacement fluorescence polarization (FP) assay, in which the TAMRA-labeled PI(3,4,5)P3 complexed with Grip1 PH domain is displaced by PI(3,4,5)P3 formed in the PI3-Kα reaction resulting in a decrease in FP signal. Mouse PI3-Kα P110 and P85 subunits were co-expressed in insect cells and co-purified to homogeneity. PI(4,5)P2 were obtained from Cayman. TAMRA-labeled PI(3,4,5)P3 were from Echelon, Grip1 PH domain from Dundee and other reagents were from Sigma.
All assays were performed in a Corning solid black 96-well half area plate using LJL Analyst (Molecular Devices) at room temperature. The assay buffer contained 50 mM HEPES, pH 7.4, 150 mM NaCl, 5 mM DTT, and 0.05% CHAPS. Dry powder PI(4,5)P2 was dissolved in 50 mM TRIS, pH 8 to make 1 mM stock solution. The PI(4,5)P2 stock solution was then diluted in the assay buffer to 60 μM, and sonicated for 30 sec before use. To the assay plate, the following reagents were added in sequence: 10 μL of 60 μM PI(4,5)P2, 5 μL of 4 nM PI3-Kα, 2 μL of compound in 25% DMSO, 3 μL of mixture containing 200 μM ATP and 33 mM MgCl2. The final volume for the reaction was 20 μL. The reaction mixture was incubated at room temperature for 35 min. The reaction was then stopped by 20 μL of 20 mM EDTA. […] The FP signal was allowed to develop for 40 min before reading on a LJL analyst at excitation 535 nm and emission 580 nm.
The percentage of inhibition was calculated based on the following equation % inhibition=[1−(FPcompound−FPmax)/(FPmin−FPmax)]×100, where FPcompound is the FP reading at a given compound concentration, FPmin is the FP signal of the PI3-Kα reaction in the absence of a compound, and FPmax is the background FP signal in the absence of PI3-Kα and a compound. The IC50 was determined by fitting the FP signal vs. compound concentration to a sigmoidal dose response equation using GraphPad Prism curve fitting program.

| Structure (SMILES) | IC50 [1] | IC50 [2] | inhibition at 10 µM [2] | inhibition at 50 µM ([2]; at 50 μM) |
| --- | --- | --- | --- | --- |
| CNc1nc(C)c2cc(-c3cnc(N)c(OC[C@H](C)N)n3)c(=O)n(C3CCCC3)c2n1 [Compound 103, 6-(5-amino-6-{[(2S)-2-aminopropyl]oxy}pyrazin-2-yl)-8-cyclopentyl-4-methyl-2-(methylamino)pyrido[2,3-d]pyrimidin-7(8H)-one] | 2330 nM | 400 nM |  |  |
| CNc1nc(C)c2cc(-c3cc(CN)ccc3F)c(=O)n(C3CCCC3)c2n1 [Compound 104, 6-(5-(Aminomethyl)-2-fluorophenyl)-8-cyclopentyl-4-methyl-2-(methylamino)pyrido[2,3-d]pyrimidin-7(8H)-one] | 10000 nM |  | 43% |  |
| CNc1nc(C)c2cc(-c3cnn(CCO)c3)c(=O)n(C3CCCC3)c2n1 [Compound 105, 8-Cyclopentyl-6-(1-(2-hydroxyethyl)-1H-pyrazol-4-yl)-4-methyl-2-(methylamino)pyrido[2,3-d]pyrimidin-7(8H)-one] | 234 nM | 24 nM |  |  |
| Cc1nc(N)nc2c1cc(-c1cnn(CCO)c1)c(=O)n2C1CCCC1 [Compound 106, 2-Amino-8-cyclopentyl-6-(1-(2-hydroxyethyl)-1H-pyrazol-4-yl)-4-methylpyrido[2,3-d]pyrimidin-7(8H)-one] | 495 nM | 45 nM |  |  |
| CNc1nc(C)c2cc(-c3cncnc3)c(=O)n(C3CCCC3)c2n1 [Compound 107, 8-Cyclopentyl-4-methyl-2-(methylamino)-6-(pyrimidin-5-yl)pyrido[2,3-d]pyrimidin-7(8H)-one] | 305 nM | 23 nM |  |  |
| CNc1nc(C)c2cc(-c3ccc(O)c(OC)c3)c(=O)n(C3CCCC3)c2n1 [Compound 108, 8-cyclopentyl-6-(4-hydroxy-3-methoxyphenyl)-4-methyl-2-(methylamino)pyrido[2,3-d]pyrimidin-7(8H)-one] | 3.82 nM | 1.57 nM | 99% |  |
| CNc1nc(C)c2cc(-c3ccc(OC)nc3)c(=O)n(C3CCC3)c2n1 [Compound 109, 8-Cyclobutyl-6-(6-methoxypyridin-3-yl)-4-methyl-2-(methylamino)pyrido[2,3-d]pyrimidin-7(8H)-one] | 58.4 nM | 6.3 nM | 99% |  |
| C=CCn1c(=O)c(-c2ccc(OC)nc2)cc2c(C)nc(NC)nc21 [Compound 110, 8-allyl-6-(6-methoxypyridin-3-yl)-4-methyl-2-(methylamino)pyrido[2,3-d]pyrimidin-7(8H)-one] | 106 nM | 17 nM |  |  |
| Cc1nc(N)nc2c1cc(-c1ccc(Cl)nc1)c(=O)n2C1CCCC1 [Compound 112, 2-amino-6-(6-chloropyridin-3-yl)-8-cyclopentyl-4-methylpyrido[2,3-d]pyrimidin-7(8H)-one] | 74.2 nM | 39.1 nM |  |  |
| CNc1nc(C)c2cc(-c3ccc(OC)nc3)c(=O)n(C(C)C)c2n1 [Compound 113, 8-Isopropyl-6-(6-methoxypyridin-3-yl)-4-methyl-2-(methylamino)pyrido[2,3-c]pyrimidin-7(8H)-one] | 95.2 nM | 21 nM |  |  |
| Cc1nc(NCC(C)(C)O)nc2c1cc(-c1cccc(O)c1)c(=O)n2C1CCCC1 [Compound 114, 8-Cyclopentyl-2-(2-hydroxy-2-methylpropylamino)-6-(3-hydroxyphenyl)-4-methylpyrido[2,3-d]-pyrimidin-7(8H)-one] | 1180 nM | 110 nM |  |  |
| CNc1nc(C)c2cc(-c3cnc4[nH]ccc4c3)c(=O)n(C3CCCC3)c2n1 [Compound 115, 8-cyclopentyl-4-methyl-2-(methylamino)-6-(1H-pyrrolo[2,3-b]pyridin-5-yl)pyrido[2,3-d]pyrimidin-7(8H)-one] | 3.82 nM | 0.75 nM |  |  |
| COc1ccc(-c2cc3c(C)nc(NCC(C)(C)O)nc3n(C3CCCC3)c2=O)cn1 [Compound 116, 8-Cyclopentyl-2-(2-hydroxy-2-methylpropylamino)-6-(6-methoxypyridin-34)-4-methylpyrido[2,3-d]pyrimidin-7(8H)-one] | 5750 nM | 830 nM |  |  |
| CCNc1nc(C)c2cc(CCC(=O)N(CC)CC)c(=O)n(C3CCCC3)c2n1 [Compound 117, 3-[8-cyclopentyl-2-(ethylamino)-methyl-7-oxo-7,8-dihydropyrido[2,3-d]pyrimidin-6-yl]-N,N-diethylpropanamide] | 10000 nM |  | 32% |  |
| CCNc1nc(C)c2cc(CCC(=O)Nc3ncc[nH]3)c(=O)n(C3CCCC3)c2n1 [Compound 119] | 5710 nM | 310 nM |  |  |
| CNc1nc(C)c2cc(/C=C/O)c(=O)n(C3CCCC3)c2n1 [Compound 120, (E)-8-cyclopentyl-6-(2-hydroxyvinyl)-4-methyl-2-(methylamino)pyrido[2,3-d]pyrimidin-7(8H)-one] | 896 nM | 42 nM |  |  |
| CCNc1nc(C)c2cc(CCC(=O)N(C)C)c(=O)n(C3CCCC3)c2n1 [Compound 121, 3-(8-Cyclopentyl-2-(ethylamino)-4-methyl-7-oxo-7,8-dihydropyrido[2,3-d]pyrimidin-6-yl)-N,N-dimethylpropanamide] | 10000 nM |  |  | 27% |
| CNc1nc(C)c2cc(C(N)=O)c(=O)n(C3CCCC3)c2n1 [Compound 123, 8-Cyclopentyl-4-methyl-2-(methylamino)-7-oxo-7,8-dihydropyrido[2,3-d]pyrimidine-6-carboxamide] | 650 nM | 68 nM |  |  |
| CNc1nc(C)c2cc(-c3cn[nH]c3)c(=O)n(C3CCCC3)c2n1 [Compound 124, 8-cyclopentyl-4-methyl-2-(methylamino)-6-(1H-pyrazol-4-yl)pyrido[2,3-d]pyrimidin-7(8H)-one] | 2.58 nM | 8 nM |  |  |
| COc1ncccc1-c1cc2c(C)nc(N)nc2n(C2CCCC2)c1=O [Compound 126] | 5480 nM | 856 nM |  |  |
| Cc1nc(N)nc2c1cc(-c1cnc3[nH]ccc3c1)c(=O)n2C1CCCC1 [Compound 127, 2-amino-8-cyclopentyl-4-methyl-6-(1H-pyrrolo[2,3-b]pyridin-5-yl)pyrido[2,3-d]pyrimidin-7(8H)-one] | 2.76 nM | 0.48 nM |  |  |
| CNc1nc(C)c2cc(-c3cccnc3OC)c(=O)n(C3CCCC3)c2n1 [Compound 128, 8-cyclopentyl-6-(2-methoxypyridin-3-yl)-4-methyl-2-(methylamino)pyrido[2,3-d]pyrimidin-7(8H)-one] | 3530 nM | 275 nM |  |  |
| CCNc1nc(C)c2cc(CCCO)c(=O)n(C3CCCC3)c2n1 [Compound 129, 8-Cyclopentyl-2-(ethylamino)-6-(3-hydroxypropyl)-4-methylpyrido[2,3-d]pyrimidin-7(8H)-one] | 2750 nM | 4 nM |  |  |
| COc1ncc(-c2cc3c(C)nc(N)nc3n([C@H]3CC[C@@H](OCCO)CC3)c2=O)cc1F [Compound 294, 2-amino-6-(5-fluoro-6-methoxypyridin-3-yl)-8-[cis-4-(2-hydroxyethoxy)cyclohexyl]-4-methylpyrido[2,3-d]pyrimidin-7(8H)-one] |  | 2.6 nM |  |  |
